Test results taken from patent publication US20250354993A1, “METHODS OF TREATING AND DIAGNOSING LUNG CANCER” (Yeda Research and Development Co. Ltd., priority 2019, published 2025).

Experiments:
PSME4 = assay: Western blot of A549 cells treated with mizoribine; assay type: cell-based; details: purine synthesis blocked using mizoribine, FIG. 26B
Method: FIG. 26A-B. PSME4 expression correlates with increased Pyrimidine and decreased Purine metabolites. (A) The log 2 fold change in abundance of cellar metabolites in PSME4 high or low expressing cell lines (x axis) is plotted against the significance of the change. […] (B) A549 cells were treated with mizoribine for the time indicated and then separated by SDS-PAGE and analyzed by Western blot probed with the following antibodies: PSME4, LMP7 (PSMB8), PSMB10, pana (recognized all PSMA subunits), and β actin. Cell Culture and Treatments: A549 cells were grown in DMEM supplemented with 10% fetal bovine serum, 1% Penicillin/streptomycin and L-glutamine (2 mM) (Biological industries) at 37° C. with 5% CO2. Cells were treated with 400 U*mL−1 TNFαand/or 200 U*mL-1 IFNγ (peprotech) for the indicated amount of time. Antibodies for Western blotting, immunoprecipitation and immunohistochemistry: Primary antibodies to the following were used: PSMA1 (hybridoma). PANα (PSMA1-7; Enzo, BML-PW8195-0025), PSME4 (Millipore Sigma HPA060922 and Proteintech 18799-1-AP), LMP7 (Cell signaling 13635), PSMB10 (Thermo Fisher PAS19146) and β-Actin (Abcam ab170325) The following secondary antibodies were used: goat anti-mouse HRP (115-035-003) and goat anti-rabbit HRP (111-035-003) (Jackson Labs).

proteasome = assay: Proteasome Cleavage Reporter Assay in A549 active cell extract; assay type: biochemical
Method: FIGS. 33A-D Active cell extract was prepared from A549 lung cancer cells, cells treated with TNFα and IFNγ (TI) and cells treated with TI and recombinant PA200. As a control, MG132 proteasome inhibitor was added. The extracts were then incubated with LLVY-AMC (SEQ ID NO: 1) (A) or PAL-AMC (SEQ ID NO: 2) (B) for 3.5 hours and the relative fluorescence units (RFU) was measured every minute. The RFU for each condition using LLVY-AMC (SEQ ID NO: 1) (C) or PAL-AMC (SEQ ID NO: 2) (D) is shown at 1.5 and 3.5 hours across the different repeats of the experiment.
FIGS. 34A-D. Active cell extract was prepared from A549 lung cancer cells and cells treated with TNFα and IFNγ (TI). To each of these PA200 was added at a concentration of 4.7 nm (1:1) or 0.47 nm (1:10). As a control, MG132 proteasome inhibitor was added. The extracts were then incubated with LLE-AMC (SEQ ID NO: 3) (A), NPND-AMC (SEQ ID NO: 4) (B), LLVY-AMC (SEQ ID NO: 1) (C) or LLE-BNA (SEQ ID NO: 5) (D) for 3.5 hours and the relative fluorescence units (RFU) was measured every minute.
Proteasome Cleavage Reporter Assay: A549 cells, stimulated with TNFα and IFNγ for the indicated times, were collected and flash frozen. Frozen cells were re-suspended in lysis buffer (25 mM sucrose, 50 mM TRIS pH 7.4, 5 mM MgCl2, 0.5 mM EDTA, 2 mM ATP, 1 mM DTT). Lysates were passed 10 times through a 27 G needle, incubated on ice for 15 min and the centrifuged at 21130rcf for 10 min. Protein concentrations were measured using the Coomassie Plus (Bradford) Assay Kit (Pierce, ThermoFisher Scientific). […] of cellular lysate was incubated with 0.1 mM suc-LLVY-AMC (SEQ ID NO: 1), ac-PAL-AMC (SEQ ID NO: 2), Z-LLE-AMC (SEQ ID NO: 3) (Biotest), ac-NPND-AMC (SEQ ID NO: 4) and Z-LLE-βNA (SEQ ID NO: 5) (bachem) as per protocol and fluorescence levels were measured over time using a BioTek Synergy H1 plate reader (Ex: 360 nm, Em: 460 nm). The background protease activity was determined for each condition from an identically prepared sample with the addition of Mg132 proteasome inhibitor (0.04 mM; Calbiochem). […]

[1] = A549 extract, PA200 added at 4.7 nm (1:1) or 0.47 nm (1:10), FIG. 34A-D

For `NC(=O)c1ncn([C@@H]2O[C@H](CO)[C@@H](O)[C@H]2O)c1O` [mizoribine], the PSME4 expression (PSME4) was “decrease in PSME4 expression”.

With “recombinant PSME4: recombinant Proteasome activator complex subunit 4 (PA200) added to A549 cell extract” the “effect on the TNFα and IFNγ induced increase in proteasome cleavage” value (proteasome; A549 cells treated with TNFα and IFNγ plus recombinant PA200, LLVY-AMC or PAL-AMC, FIG. 33A-D) was “partially reduced”, the “chymotryptic cleavage (suc-LLVY-AMC)” value (proteasome; [1]) was “reduction of activity” and the “constitutive proteasome caspase like activity (NPND-AMC + LLE-βNA)” value (proteasome; [1]) was “induces the activity”.
